# Target: Nociceptin receptor (Homo sapiens, UniProt P41146)
# Assay: Cell-Based NOP Assay: Formula (I) compounds were tested for antagonism of the nociceptin receptor (NOP) in a cell-based cAMP assay, using the LANCE cAMP Detection Kit, Perkin Elmer (Waltham, Mass.). This assay (LANCE cAMP) is a homogeneous, time-resolved fluorescence resonance energy transfer (TR-FRET) immunoassay designed to measure cAMP produced upon modulation of adenylyl cyclase activity by G protein-coupled receptors (GPCRs).ProtocolCells expressing human opioid NOP (ValiScreen cell line, cat #ES-230-C Perkin Elmer (Waltham, Mass.) were dispensed in simulation buffer (5 mM Hepes, 0.1% BSA, 0.5 mM IBMX in Hanks Buffered Saline Solution) at 2.5 μL cells per well (400 cells/well) into a 1536 white TC-treated assay plate. Compound was then added and plates were incubated for 15 minutes at room temperature. To each well was added 2.5 μL of a solution containing forskolin (3 μM final) and nociceptin peptide (390 pM final) diluted in stimulation buffer, and the plates were incubated for 30 minutes at room temperature. To each well was dispensed 5 μL of LANCE Ultra detection (1:300 dilution of anti-cAMP ULight with a 1:100 dilution of Eu-cAMP tracer diluted in cAMP Detection Buffer) reagent, and the plates were incubated for 1 hr at room temperature. The plate was then read on the ViewLux microplate reader (Perkin Elmer, Waltham, Mass.) using the LANCE 1536 protocol with 60 second exposure times and 50 μs delay. This protocol has an excitation wavelength of 340 nm (DUG11 filter) and emission wavelengths of 615 nm (Eu-Donor) and 665 nm (Alexa 647 cAMP antibody acceptor).Data AnalysisData was analyzed, normalized, and visualized using ACAS (John McNeil & Co.). Efficacy was calculated using activity of the vehicle (DMSO) as 0% efficacy and the activity of the corresponding reference positive control (SCH 221510, Tocris Bioscience (Pittsburgh, Pa.), Catalog number 3240) as 100% efficacy. Activity was calculated as the ratio of donor and acceptor emissions. All curve fits and IC50 determinations were performed using a non-linear regression model. The IC50 value was measured as the concentration at which half-maximal response was calculated.
# Nociceptin receptor, sequence (P41146 whole entry): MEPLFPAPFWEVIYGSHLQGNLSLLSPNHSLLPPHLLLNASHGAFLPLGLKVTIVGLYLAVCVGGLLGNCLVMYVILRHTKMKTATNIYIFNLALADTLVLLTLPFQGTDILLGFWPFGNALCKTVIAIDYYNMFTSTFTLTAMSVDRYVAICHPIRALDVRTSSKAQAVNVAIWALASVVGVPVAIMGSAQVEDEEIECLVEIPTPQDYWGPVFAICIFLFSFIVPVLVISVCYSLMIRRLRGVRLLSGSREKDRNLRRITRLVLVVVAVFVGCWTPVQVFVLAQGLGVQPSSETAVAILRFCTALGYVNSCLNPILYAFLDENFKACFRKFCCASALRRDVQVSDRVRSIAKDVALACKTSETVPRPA
row,SMILES,IC50 [nM]
1,NC(=O)C1(NCC[C@H]2CC[C@@H](c3c(F)cc(F)cc3Cl)CC2)CCOCC1,1 to 10
2,N#C[C@H]1CC[C@@H](NCC[C@H]2CC[C@@H](c3ccc(F)cc3C(F)(F)F)CC2)CC1,< 1
3,CC1(NCC[C@H]2CC[C@@H](c3ncc(F)cc3Cl)CC2)CCNC(=O)C1 (stereo partly drawn),100 to 1000
4,Fc1ccc(Cl)c(C2CCC(CCNC3CCCCC3)CC2)c1 (stereo not drawn),100 to 1000
5,Fc1ccc(Cl)c(C2CCC(CCNC3CCCC3)CC2)c1 (stereo not drawn),10 to 100
6,CCNC(=O)C1(NCC[C@H]2CC[C@@H](c3ccc(F)cc3Cl)CC2)CCOCC1,1 to 10
7,OC1CCCC1NCC[C@H]1CC[C@@H](c2ccc(F)cc2Cl)CC1 (stereo partly drawn),< 1
8,O=C1C[C@H](NCC[C@H]2CC[C@H](c3ncc(F)cc3Cl)CC2)CCN1,1 to 10
9,Clc1ccccc1C1CCC(CCNC2CCOCC2)CC1 (stereo not drawn),1 to 10
10,Cc1cc(F)ccc1C1CCC(CCNC2CCCCC2)CC1 (stereo not drawn),100 to 1000
11,NC(=O)C1(NCC[C@H]2CC[C@@H](c3ncc(F)cc3Cl)CC2)CCOCC1,10 to 100
12,NC(=O)C1(NCC[C@H]2CC[C@H](c3c(F)cc(F)cc3F)CC2)CCOCC1,1 to 10
13,NC(=O)C1(NCC[C@H]2CC[C@H](c3ncc(F)cc3Cl)CC2)CCOCC1,10 to 100
14,Fc1cnc([C@H]2CC[C@@H](CCNC3CCOCC3)CC2)nc1,100 to 1000
15,Cc1c(F)c(F)ccc1[C@H]1CC[C@@H](CCNC2(C(N)=O)CCOCC2)CC1,10 to 100
16,Cc1ccncc1[C@H]1CC[C@@H](CCNC2CCOCC2)CC1,100 to 1000
17,CNC(=O)C1(NCC[C@H]2CC[C@H](c3ncc(F)cc3Cl)CC2)CCOCC1,1 to 10
18,NC(=O)C1(NCC[C@H]2CC[C@@H](c3ccc(F)cc3F)CC2)CCOCC1,10 to 100
19,COCC1(NCCC2CCC(c3cccc(F)c3Cl)CC2)CCOCC1 (stereo not drawn),100 to 1000
20,Fc1ccc([C@H]2CC[C@@H](CCNC3CCCC3(F)F)CC2)c(Cl)c1 (stereo partly drawn),10 to 100
21,Cc1cc(F)ccc1[C@H]1CC[C@@H](CCNC2CCOCC2)CC1,< 1
22,NC(=O)C1(NCC[C@H]2CC[C@@H](c3c(F)cc(F)cc3F)CC2)CCOCC1,100 to 1000
23,Cc1cccnc1C1CCC(CCNC2(C)CCOCC2)CC1 (stereo not drawn),100 to 1000
24,CN1CCC(NCCC2CCC(c3cc(F)ccc3Cl)CC2)CC1 (stereo not drawn),100 to 1000
25,CCNC(=O)C1(NCC[C@H]2CC[C@@H](c3ncc(F)cc3Cl)CC2)CCOCC1,1 to 10
26,CC(=O)N1CCC(NCCC2CCC(c3ccc(Cl)cc3F)CC2)CC1 (stereo not drawn),100 to 1000

row,SMILES,IC50 [nM]
1,CNC(=O)C1(NCC[C@H]2CC[C@@H](c3ccc(F)cc3C(F)(F)F)CC2)CCOCC1,1 to 10
2,Cc1c(C#N)cccc1[C@H]1CC[C@@H](CCNC2CCOCC2)CC1,100 to 1000
3,Cc1cc(F)ccc1C1CCC(CCNC2CCCC2)CC1 (stereo not drawn),1 to 10
4,CC1(NCCC2CCC(c3ccccc3Cl)CC2)CCOCC1 (stereo not drawn),100 to 1000
5,CC1(NCC[C@H]2CC[C@@H](c3ccc(F)cc3Cl)CC2)CCNC(=O)C1 (stereo partly drawn),10 to 100
6,Cc1cccnc1C1CCC(CCNC2CCCC2)CC1 (stereo not drawn),100 to 1000
7,Fc1ccc(C2CCC(CCNC3CCOCC3)CC2)c(Cl)c1 (mixture of isomers),< 1
8,NC(=O)N1CCC(NCCC2CCC(c3ncc(F)cc3Cl)CC2)CC1 (stereo not drawn),100 to 1000
9,CNC(=O)C1(NCC[C@H]2CC[C@@H](c3ccc(F)cc3F)CC2)CCOCC1,10 to 100
10,CNC(=O)C1(NCC[C@H]2CC[C@H](c3ccc(F)cc3F)CC2)CCOCC1,1 to 10
11,O=C1C[C@@H](NCC[C@H]2CC[C@@H](c3ncc(F)cc3Cl)CC2)CCN1,10 to 100
12,Fc1cccc(Cl)c1[C@H]1CC[C@H](CCNC2CCOCC2)CC1,1 to 10
13,NC(=O)C1(NCC[C@H]2CC[C@@H](c3cc(F)ccc3Cl)CC2)CCOCC1,10 to 100
14,CC(=O)N1CCC(NCCC2CCC(c3ccc(F)cc3C)CC2)CC1 (stereo not drawn),100 to 1000
15,CNC(=O)C1(NCCC2CCC(c3ncccc3Cl)CC2)CCCC1 (stereo not drawn),100 to 1000
16,COCC1(NCC[C@H]2CC[C@@H](c3ncc(F)cc3Cl)CC2)CCOCC1,10 to 100
17,COCC1(NCCC2CCC(c3cnccc3C)CC2)CCOCC1 (stereo not drawn),100 to 1000
18,O=C(NCC1CC1)C1(NCC[C@H]2CC[C@@H](c3ccc(F)cc3Cl)CC2)CCCC1,100 to 1000
19,CN1CCC(NCCC2CCC(c3c(F)cccc3Cl)CC2)CC1 (stereo not drawn),100 to 1000
20,Cc1cc(F)ccc1[C@H]1CC[C@H](CCNC2(C(N)=O)CCOCC2)CC1,10 to 100
21,CCNC(=O)C1(NCC[C@H]2CC[C@@H](c3ccc(F)cc3C(F)(F)F)CC2)CCOCC1,1 to 10
22,Cc1cc(F)ccc1C1CCC(CCNC2(C)CCOCC2)CC1 (stereo not drawn),100 to 1000
23,CNC(=O)C1(NCC[C@H]2CC[C@@H](c3c(F)cncc3Cl)CC2)CCOCC1,1 to 10
24,O=C1C[C@@H](NCC[C@H]2CC[C@H](c3ncc(F)cc3Cl)CC2)CCN1,100 to 1000
25,Fc1ccc([C@H]2CC[C@H](CCNC3CCOCC3)CC2)c(Cl)c1,1 to 10
26,Oc1cccc([C@H]2CC[C@H](CCNC3CCOCC3)CC2)c1,100 to 1000

row,SMILES,IC50 [nM]
1,CNC(=O)C1(NCC[C@H]2CC[C@H](c3c(F)cncc3Cl)CC2)CCOCC1,10 to 100
2,NC(=O)C1(NCC[C@H]2CC[C@@H](c3cccc(F)c3Cl)CC2)CCOCC1,100 to 1000
3,CNC(=O)C1(NCC[C@H]2CC[C@H](c3ccc(F)cc3C(F)(F)F)CC2)CCOCC1,1 to 10
4,Cc1cc(F)ccc1C1CCC(CCNC2CCOCC2)CC1 (stereo not drawn),1 to 10
5,CC1(NCCC2CCC(c3ncc(F)cc3Cl)CC2)CCCC1 (stereo not drawn),10 to 100
6,NC(=O)C1(NCC[C@H]2CC[C@@H](c3ccc(F)cc3Cl)CC2)CCCOC1 (stereo partly drawn),100 to 1000
7,NC(=O)C1(NCC[C@H]2CC[C@H](c3ccc(F)cc3Cl)CC2)CCOCC1,10 to 100
8,Fc1ccc(C2CCC(CCNC3CCCC3)CC2)c(F)c1 (stereo not drawn),10 to 100
9,Cc1cnccc1[C@H]1CC[C@@H](CCNC2CCOCC2)CC1,100 to 1000
10,Clc1cccnc1[C@H]1CC[C@H](CCNC2CCOCC2)CC1,10 to 100
11,NC(=O)C1(NCC[C@H]2CC[C@@H](c3ccc(F)cc3Cl)CC2)CCOC1 (stereo partly drawn),100 to 1000
12,Fc1cc(Cl)ccc1C1CCC(CCNC2CCOCC2)CC1 (stereo not drawn),1 to 10
13,CC1(NCCC2CCC(c3ncc(F)cc3Cl)CC2)CCOCC1 (stereo not drawn),100 to 1000
14,OCC1(NCC[C@H]2CC[C@@H](c3ccc(F)cc3Cl)CC2)CCOCC1,1 to 10
15,Cc1cc(F)cc(F)c1[C@H]1CC[C@@H](CCNC2(C(N)=O)CCOCC2)CC1,1 to 10
16,Fc1cnc(C2CCC(CCNC3CCCCC3)CC2)c(Cl)c1 (stereo not drawn),1 to 10
17,CNC(=O)C1(NCC[C@H]2CC[C@@H](c3ccc(F)cc3Cl)CC2)CCCC1,1 to 10
18,Fc1cnc([C@H]2CC[C@@H](CCNC3CCOCC3)CC2)c(Cl)c1,< 1
19,Cc1cccnc1C1CCC(CCNC2CCCCC2)CC1 (stereo not drawn),100 to 1000
20,O=C1C[C@H](NCC[C@H]2CC[C@@H](c3ncc(F)cc3Cl)CC2)CCN1,1 to 10
21,Fc1ccc(Cl)c(C2CCC(CCNC3CCOCC3)CC2)c1 (stereo not drawn),1 to 10
22,CC(=O)N1CCC(NCC[C@H]2CC[C@@H](c3ccc(F)cc3Cl)CC2)C1 (stereo partly drawn),10 to 100
23,Cc1cc(F)c(F)cc1[C@H]1CC[C@@H](CCN[C@@H]2CCNC(=O)C2)CC1,1 to 10
24,Fc1ccc(C2CCC(CCNC3CCCCC3)CC2)c(F)c1 (stereo not drawn),10 to 100
25,CC1(NCCC2CCC(c3ccccc3Cl)CC2)CCCC1 (stereo not drawn),100 to 1000
26,CNC(=O)C1(NCCC2CCC(c3ncc(F)cc3Cl)CC2)CCCC1 (stereo not drawn),10 to 100

row,SMILES,IC50 [nM]
1,Cc1cc(F)c(F)cc1[C@H]1CC[C@H](CCN[C@@H]2CCNC(=O)C2)CC1,10 to 100
2,CC1(NCCC2CCC(c3cc(F)ccc3Cl)CC2)CCCC1 (stereo not drawn),100 to 1000
3,Fc1cccc(Cl)c1C1CCC(CCNC2CCCC2)CC1 (stereo not drawn),1 to 10
4,CN1CCC(NCC[C@H]2CC[C@@H](c3ccc(F)cc3Cl)CC2)CC1=O (stereo partly drawn),10 to 100
5,Cc1cccnc1C1CCC(CCNC2CCOCC2)CC1 (stereo not drawn),10 to 100
6,OC1COCCC1NCC[C@H]1CC[C@@H](c2ccc(F)cc2Cl)CC1 (stereo partly drawn),< 1
7,NC(=O)C1(NCC[C@H]2CC[C@H](c3ncccc3Cl)CC2)CCOCC1,100 to 1000
8,NC(=O)C1(NCC[C@H]2CC[C@@H](c3ccc(F)cc3Cl)CC2)CCOCC1,1 to 10
9,CO[C@@H]1COCC[C@@H]1NCC[C@H]1CC[C@@H](c2ccc(F)cc2Cl)CC1,1 to 10
10,CS(=O)(=O)N1CCC(NCC[C@H]2CC[C@@H](c3ccc(F)cc3Cl)CC2)CC1,10 to 100
11,O=C1CC(NCC[C@H]2CC[C@@H](c3ccc(F)cc3Cl)CC2)CCN1 (stereo partly drawn),< 1
12,COCC1(NCC[C@H]2CC[C@@H](c3ccc(F)cc3Cl)CC2)CCOCC1,1 to 10
13,COCC1(NCC[C@H]2CC[C@H](c3ncc(F)cc3Cl)CC2)CCOCC1,100 to 1000
14,Fc1cccc(C2CCC(CCNC3CCCCC3)CC2)c1Cl (stereo not drawn),10 to 100
15,O=C1C[C@H](NCC[C@H]2CC[C@@H](c3ccc(F)cc3Cl)CC2)CCN1,< 1
16,NC(=O)C1(NCCC2CCC(c3ccc(F)cc3F)CC2)CCCC1 (stereo not drawn),100 to 1000
17,Clc1cccnc1[C@H]1CC[C@@H](CCNC2CCOCC2)CC1,10 to 100
18,Fc1cc(Cl)ccc1C1CCC(CCNC2CCCCC2)CC1 (stereo not drawn),1 to 10
19,O=C1C[C@@H](NCC[C@H]2CC[C@@H](c3ccc(F)cc3Cl)CC2)CCN1,1 to 10
20,Fc1cc(Cl)ccc1C1CCC(CCNC2CCCC2)CC1 (stereo not drawn),10 to 100
21,NC(=O)C1(NCC[C@H]2CC[C@@H](c3ncccc3Cl)CC2)CCOCC1,100 to 1000
22,NC(=O)C1(NCC[C@H]2CC[C@@H](c3ccc(F)cc3C(F)(F)F)CC2)CCOCC1,1 to 10
23,Fc1ccc([C@H]2CC[C@@H](CCNC3CCOCC3)CC2)c(F)c1,1 to 10
24,CC1(NCCC2CCC(c3ccc(F)cc3F)CC2)CCCC1 (stereo not drawn),100 to 1000
25,COCC1(NCCC2CCC(c3ccc(F)cc3F)CC2)CCOCC1 (stereo not drawn),10 to 100

# From ChEMBL document CHEMBL5729163, “Substituted cyclohexyl compounds as NOP inhibiiors” (2022)
